Data published in patent publication US10667518B2, “Pesticidally active heterocyclic derivatives with sulphur containing substituents” (SYNGENTA PARTICIPATIONS AG, priority 2016, dated 2020).

What was measured:
Format in all cases: in vivo
[1] = test system: Diabrotica balteata (Corn Root Worm); assay: Diabrotica balteata (corn root worm) test on sprayed maize sprouts; details: 96 h, application rate of 200 ppm, L2 larvae, 4 days after infestation, in comparison to untreated samples, read-out: effect in at least one of the two categories (mortality or growth inhibition)
Method: Example B2: Diabrotica balteata (Corn Root Worm)
Maize sprouts placed onto an agar layer in 24-well microtiter plates were treated with aqueous test solutions prepared from 10′000 ppm DMSO stock solutions by spraying. After drying, the plates were infested with L2 larvae (6 to 10 per well). The samples were assessed for mortality and growth inhibition in comparison to untreated samples 4 days after infestation.
(§1) The following compounds gave an effect of at least 80% in at least one of the two categories (mortality or growth inhibition) at an application rate of 200 ppm: P1, P2, P3, P4.

[2] = test system: Plutella xylostella (Diamond Back Moth); assay: Plutella xylostella (diamond back moth) artificial diet test; details: 120 h, application rate of 200 ppm, L2 larvae, artificial diet treated by pipetting, 5 days after infestation, in comparison to untreated samples, read-out: effect in at least one of the two categories (mortality or growth inhibition)
Method: Example B7: Plutella xylostella (Diamond Back Moth)
24-well microtiter plates with artificial diet were treated with aqueous test solutions prepared from 10′000 ppm DMSO stock solutions by pipetting. After drying, the plates were infested with L2 larvae (10 to 15 per well). The samples were assessed for mortality and growth inhibition in comparison to untreated samples 5 days after infestation.
as §1

[3] = test system: Spodoptera littoralis (Egyptian Cotton Leaf Worm); assay: Spodoptera littoralis (Egyptian cotton leaf worm) test on sprayed cotton leaf discs; details: foliar, 72 h, application rate of 200 ppm, L1 larvae, 3 days after infestation, in comparison to untreated samples, read-out: control (mortality, anti-feeding effect, or growth inhibition)
Method: Example B8: Spodoptera littoralis (Egyptian Cotton Leaf Worm)
Cotton leaf discs were placed onto agar in 24-well microtiter plates and sprayed with aqueous test solutions prepared from 10′000 ppm DMSO stock solutions. After drying the leaf discs were infested with five L1 larvae. The samples were assessed for mortality, anti-feeding effect, and growth inhibition in comparison to untreated samples 3 days after infestation. Control of Spodoptera littoralis by a test sample is given when at least one of the categories mortality, anti-feedant effect, and growth inhibition is higher than the untreated sample.

CCS(=O)(=O)c1cc(-c2cccc(F)c2)cnc1-n1cc2ccc(C(F)(F)F)cc2n1 [P4]
≥ 80%: percent effect (mortality or growth inhibition) at 200 ppm [1] | percent effect (mortality or growth inhibition) at 200 ppm [2] | percent control (mortality, anti-feedant effect or growth inhibition) at 200 ppm [3]

CCS(=O)(=O)c1cc(-c2cc(F)cc(F)c2)cnc1-n1cc2ncc(C(F)(F)F)cc2n1 [P1, 2-[5-(3,5-difluorophenyl)-3-ethylsulfonyl-2-pyridyl]-6-(trifluoromethyl)pyrazolo[4,3-b]pyridine]
≥ 80%: percent effect (mortality or growth inhibition) at 200 ppm [1] | percent effect (mortality or growth inhibition) at 200 ppm [2] | percent control (mortality, anti-feedant effect or growth inhibition) at 200 ppm [3]

CCS(=O)(=O)c1cc(-c2cc(F)cc(F)c2)cnc1-n1cc2ccc(C(F)(F)F)cc2n1 [P3, 2-[5-(3,5-difluorophenyl)-3-ethylsulfonyl-2-pyridyl]-6-(trifluoromethyl)indazole]
≥ 80%: percent effect (mortality or growth inhibition) at 200 ppm [1] | percent effect (mortality or growth inhibition) at 200 ppm [2] | percent control (mortality, anti-feedant effect or growth inhibition) at 200 ppm [3]

CCS(=O)(=O)c1cc(-c2cccc(F)c2)cnc1-n1cc2ncc(C(F)(F)F)cc2n1 [P2]
≥ 80%: percent effect (mortality or growth inhibition) at 200 ppm [1] | percent effect (mortality or growth inhibition) at 200 ppm [2] | percent control (mortality, anti-feedant effect or growth inhibition) at 200 ppm [3]
